According to patent US6355659B1, “4-(4-Chlorophenyl)-1236-tetrahydro-1(1H-124-triazol-1-yl)butty)pyrideine and salts thereof; pharmaceutical compositions and method of treating psychoses utilizing same” (Laboratorios Del Dr. Esteve, S.A., priority 1994, dated 2002):
Counter-ions that a name gives are not always drawn. Like-named read-outs stand apart in the source and are kept apart here.

Experiments:
catalepsy = experiment: Induction of catalepsy in rats; assay type: in vivo; conditions: s.c.
Description: The induction of catalepsy in rats [J. Robert et al., J. Pharmacol. Exp. Ther., 1986, 239, 124] is a parameter that is commonly employed for determining the ability of antipsychotics to induce extrapyramidal effects. The typical antipsychotics are those which, in spite of being very powerful in specific tests of antipsychotic activity, induce extrapyramidal effects, and this is detected in the catalepsy test. The best known of the typical antipsychotics is haloperidol, whereas the best known of the atypical antipsychotics is clozapine.

protein c-fos = experiment: Induction of the protein c-fos in various brain areas in the rat (Western blot); assay type: in vivo; conditions: sc; for activity at 30 mg/kg: rat, acute treatment, 30 mg/kg s.c.
Description: Induction of the Protein c-fos in Various Brain Areas in the Rat
Acute treatment with various antipsychotics is characterized by the induction of the protein c-fos, owing to the rapid induction off the c-fos gene in various areas of the limbic and extrapyramidal systems [M. Dragunow et al., Neuroscience, 1990, 37, 287-294; J. C. Miller, J. Neurochem., 1990, 54, 1453-1455; A. Y. Deutch et al., Mol. Cell. Neurosci., 1992, 3, 332-341; T. V. Nguyen et al., Proc. Natl. Acad. Sci. USA, 1992, 89, 4270-4274; G. S. Robertson and H. C. Fibinger, Neuroscience, 1992, 46, 315-328]. The patterns of induction of the protein depend on whether the antipsychotic is typical or atypical [G. S. Robertson et al., J. Pharmacol. Exp. Ther., 1994, 271, 1058-1066; G. S. Robertson and H. C. Fibinger, Neuroscience, 1992, 46, 315-328]. These changes in expression of c-fos can be investigated by extraction of the proteins from the brain areas of interest, and analysis of the levels by electrophoresis (Western blot).

5-HT1A = biological target: T1, 5-HT1A (Homo sapiens, UniProt P08908); experiment: 5-HT1A receptor affinity; assay type: binding
T1 sequence (P08908 1-422): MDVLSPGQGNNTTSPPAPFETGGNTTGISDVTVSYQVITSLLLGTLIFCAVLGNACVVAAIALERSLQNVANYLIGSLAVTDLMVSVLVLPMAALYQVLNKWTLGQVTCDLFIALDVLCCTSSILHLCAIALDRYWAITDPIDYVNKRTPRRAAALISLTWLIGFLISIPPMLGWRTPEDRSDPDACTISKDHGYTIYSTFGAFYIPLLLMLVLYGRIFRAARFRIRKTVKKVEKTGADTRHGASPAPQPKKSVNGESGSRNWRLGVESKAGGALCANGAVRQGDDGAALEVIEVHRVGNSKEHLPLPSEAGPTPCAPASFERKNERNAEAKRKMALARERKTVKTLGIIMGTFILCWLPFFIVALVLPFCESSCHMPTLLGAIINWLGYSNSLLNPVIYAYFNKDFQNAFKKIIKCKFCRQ

SIGMA-1 (σ1) = SIGMA-1 (σ1) (Homo sapiens, UniProt Q99720); experiment: Sigma-1 receptor affinity; assay type: binding; conditions: SIGMA-1 (σ1) receptor
SIGMA-2 (σ2) = SIGMA-2 (σ2) (Homo sapiens, UniProt Q5BJF2); experiment: Sigma-2 receptor affinity; assay type: binding; conditions: SIGMA-2 (σ2) receptor
SIGMA-2 (σ2), sequence (Q5BJF2 whole entry): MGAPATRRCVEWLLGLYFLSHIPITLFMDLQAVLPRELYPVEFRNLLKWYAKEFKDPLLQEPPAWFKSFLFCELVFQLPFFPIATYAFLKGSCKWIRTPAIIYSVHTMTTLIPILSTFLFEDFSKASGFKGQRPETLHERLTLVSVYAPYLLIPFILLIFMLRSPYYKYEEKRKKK

SIGMA-1 (σ1), sequence (Q99720 whole entry): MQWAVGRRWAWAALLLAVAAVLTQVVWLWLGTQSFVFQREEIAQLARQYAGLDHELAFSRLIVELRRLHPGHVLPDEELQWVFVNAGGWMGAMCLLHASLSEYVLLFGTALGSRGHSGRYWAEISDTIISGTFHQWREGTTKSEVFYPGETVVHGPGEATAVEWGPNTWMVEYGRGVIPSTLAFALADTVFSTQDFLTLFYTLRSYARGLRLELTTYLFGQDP

Row | Compound | Induction of catalepsy, DE-50 (catalepsy) | Induction of catalepsy, DE-50 (catalepsy; listed as haloperidol) [mg/kg] | activity at 20 mg/kg (protein c-fos; read-out: Fos immunoreactivity % change relative to control, Dorsolateral groove, rat, acute treatment, 20 mg/kg s.c., % of saline group) [%] | activity at 20 mg/kg (protein c-fos; read-out: Fos immunoreactivity % change relative to control, Medial area of prefrontal cortex, rat, acute treatment, 20 mg/kg s.c., % of saline group) [%] | activity at 20 mg/kg (protein c-fos; read-out: Fos immunoreactivity % change relative to control, Nucleus accumbens, rat, acute treatment, 20 mg/kg s.c., % of saline group) [%] | Ki (5-HT1A) [µM] | Ki (SIGMA-1 (σ1)) [µM] | Ki (SIGMA-2 (σ2)) [µM] | activity at 30 mg/kg (protein c-fos; read-out: Fos immunoreactivity % change relative to control, Dorsolateral groove) [%] | activity at 30 mg/kg (protein c-fos; read-out: Fos immunoreactivity % change relative to control, Medial area of prefrontal cortex) [%] | activity at 30 mg/kg (protein c-fos; read-out: Fos immunoreactivity % change relative to control, Nucleus accumbens) [%]
1 | O=C(CCCN1CCC(O)(c2ccc(Cl)cc2)CC1)c1ccc(F)cc1 [Haloperidol, haloperidol] | DE-50 = 0.14 mg/kg, | 0.14 |  |  |  |  |  |  |  |  | 
2 | Clc1ccc(C2=CCN(CCCCn3cncn3)CC2)cc1 [Example 2, 4-(4-chlorophenyl)-1,2,3,6-tetrahydro-1-[4-(1H-1,2,4-triazol-1-yl)butyl]pyridine hydrochloride] |  |  | 104 | 134 | 118 | 0.6 | 0.0037 | 0.465 |  |  | 
3 | CN1CCN(C2=Nc3cc(Cl)ccc3Nc3ccccc32)CC1 [Clozapine, clozapine] | Inactive up to 80 mg/kg |  |  |  |  |  |  |  | 110 | 134 | 118
